Measured values taken from patent US8293769B2, “CSF-1R inhibitors, compositions, and methods of use” (Novartis AG, priority 2008, dated 2012).

Experiments:
[1] = target: T1, full-length human CSF-1R receptor (Homo sapiens, UniProt P07333); assay: In vitro inhibition of CSF-1R receptor tyrosine phosphorylation in transfected HEK293H cells; type: cell-based; conditions: HEK293-H, tested at about 1 μM, 50 ng/mL MCSF, read-out: PCSF1R percent inhibition
T1 construct: transfected with the full-length human CSF-1R receptor cloned in house; expressed in transfected cells; host or cells: HEK293H (Invitrogen Cat. #11631017)
Method: To test the inhibition of CSF-1R receptor tyrosine phosphorylation, HEK293H purchased from Invitrogen Cat. #11631017 cells transfected with the full-length human CSF-1R receptor cloned in house into mammalian episomal transfection vector were incubated for 1 h with serial dilutions of compounds starting at 10 μM with 3 fold dilutions and then stimulated for 8 min with 50 ng/mL MCSF. After the supernatant was removed, the cells were lysed on ice with lysis buffer (150 mM NaCl, 20 mM Tris, pH 7.5, 1 mM EDTA, 1 mM EGTA, 1% Triton X-100 and NaF, protease and phosphatase inhibitors) and then shaken for 15-20 min at 4° C. The lysate was then transferred to total CSF-1R antibody coated 96-well plates that had already been blocked with 3% Blocker A from Mesoscale discovery (MSD) for 2 hours and washed afterwards. Lysates were incubated overnight at 4° C. and the plates were then washed 4× with MSD Tris Wash Buffer. The SULFO-TAG anti-pTyr antibody from MSD was diluted to 20 nM final in 1% Blocker A (MSD) solution and added to the washed plates and incubated for 1.5-2 h before addition of read buffer (MSD). The plates were read on the Sector 6000 instrument (MSD). Raw data was imported in Abase and EC50s calculated with XL-fit data analysis software.

[2] = target: T2, cytoplasmic domain of the human CSF-1R (Homo sapiens, UniProt P07333); assay: In vitro kinase assay for CSF-1R (AlphaScreen); type: biochemical; conditions: tested at about 1 μM; read-out: CSF1RK 1 percent inhibition
T2 construct: Recombinant protein corresponding to the cytoplasmic domain of the human CSF-1R; purchased Invitrogen Corporation, Carlsbad, Calif; PV3249
T2 sequence (P07333 539-972 limits assumed): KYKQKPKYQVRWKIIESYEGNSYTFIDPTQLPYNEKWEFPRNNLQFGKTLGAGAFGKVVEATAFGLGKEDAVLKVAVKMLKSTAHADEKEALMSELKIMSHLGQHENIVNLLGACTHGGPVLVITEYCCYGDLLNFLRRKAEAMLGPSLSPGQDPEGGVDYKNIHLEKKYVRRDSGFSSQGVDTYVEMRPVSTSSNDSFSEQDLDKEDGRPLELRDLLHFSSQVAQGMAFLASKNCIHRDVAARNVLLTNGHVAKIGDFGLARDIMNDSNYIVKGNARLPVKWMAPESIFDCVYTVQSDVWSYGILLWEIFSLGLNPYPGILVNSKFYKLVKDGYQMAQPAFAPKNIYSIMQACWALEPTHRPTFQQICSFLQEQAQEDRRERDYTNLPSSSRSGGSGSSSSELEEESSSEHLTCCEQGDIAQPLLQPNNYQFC
Summary of the method: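 Recombinant CSF-1R cytoplasmic domain (4 nM) phosphorylated biotinylated peptide (0.05 μM) at 1.0 μM ATP in HEPES with Mg2+/Mn2+, 2 h at room temperature, compounds from 25 μM in 3-fold steps. AlphaScreen anti-phosphotyrosine PT66 detection; IC50 by non-linear regression.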

cKIT = target: T3, cKIT (Homo sapiens, UniProt P10721); assay: cKIT kinase in vitro biochemical assay (alphascreen); conditions: tested at about 1 μM; read-out: CKIT percent inhibition
T3 construct: The kinase domain of cKIT was assayed in 50 mM Hepes; purchased Upstate 14-559

[3] = system: MNFS60 (murine AML cells); assay: Cell viability assay in MCSF dependent MNFS60 cells (Cell Titer Glo); type: cell-based; conditions: Mus musculus; tested at about 1 μM; MCSF 10 ng/mL, 72 hrs; read-out: CPEC50 MNFS60MCSF percent inhibition
Summary of the method: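 MNFS60 cells, 5,000 per well in RPMI-1640/10% FBS, grown with 10 ng/mL MCSF and 3-fold compound dilutions for 72 h at 37 °C. Viable cells measured by CellTiter-Glo luminescence, triplicates; EC50 fitted, with MCSF-free wells as 100% inhibition.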

PDGFRb = target: T4, PDGFRb (Homo sapiens, UniProt P09619); assay: PDGFRb kinase in vitro biochemical assay (alphascreen); conditions: tested at about 1 μM; read-out: PDGF RK BETA percent inhibition
T4 construct: The kinase domain of PDGFRβ was assayed in 50 mM Hepes; purchased Invitrogen P3082
T4 sequence (P09619 600-962 limits assumed): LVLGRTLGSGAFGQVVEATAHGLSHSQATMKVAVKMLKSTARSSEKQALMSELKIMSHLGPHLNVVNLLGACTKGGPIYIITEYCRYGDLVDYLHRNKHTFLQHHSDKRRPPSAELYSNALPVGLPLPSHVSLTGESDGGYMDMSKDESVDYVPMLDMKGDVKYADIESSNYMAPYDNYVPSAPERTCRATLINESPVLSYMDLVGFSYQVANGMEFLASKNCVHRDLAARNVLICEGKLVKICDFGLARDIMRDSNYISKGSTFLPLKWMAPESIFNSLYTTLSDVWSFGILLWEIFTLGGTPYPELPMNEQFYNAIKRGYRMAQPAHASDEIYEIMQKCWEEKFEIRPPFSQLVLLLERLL

T3 sequence (P10721 589-937 limits assumed): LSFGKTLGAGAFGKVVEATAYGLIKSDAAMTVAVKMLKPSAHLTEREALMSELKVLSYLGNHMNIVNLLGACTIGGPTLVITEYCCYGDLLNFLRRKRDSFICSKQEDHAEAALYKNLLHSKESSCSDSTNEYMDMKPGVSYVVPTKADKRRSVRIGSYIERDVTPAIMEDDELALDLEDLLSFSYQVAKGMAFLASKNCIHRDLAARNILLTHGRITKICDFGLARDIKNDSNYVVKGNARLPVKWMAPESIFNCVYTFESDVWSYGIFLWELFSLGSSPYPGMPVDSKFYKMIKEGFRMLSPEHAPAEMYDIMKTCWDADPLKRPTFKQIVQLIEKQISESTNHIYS
T1 sequence (P07333 20-972): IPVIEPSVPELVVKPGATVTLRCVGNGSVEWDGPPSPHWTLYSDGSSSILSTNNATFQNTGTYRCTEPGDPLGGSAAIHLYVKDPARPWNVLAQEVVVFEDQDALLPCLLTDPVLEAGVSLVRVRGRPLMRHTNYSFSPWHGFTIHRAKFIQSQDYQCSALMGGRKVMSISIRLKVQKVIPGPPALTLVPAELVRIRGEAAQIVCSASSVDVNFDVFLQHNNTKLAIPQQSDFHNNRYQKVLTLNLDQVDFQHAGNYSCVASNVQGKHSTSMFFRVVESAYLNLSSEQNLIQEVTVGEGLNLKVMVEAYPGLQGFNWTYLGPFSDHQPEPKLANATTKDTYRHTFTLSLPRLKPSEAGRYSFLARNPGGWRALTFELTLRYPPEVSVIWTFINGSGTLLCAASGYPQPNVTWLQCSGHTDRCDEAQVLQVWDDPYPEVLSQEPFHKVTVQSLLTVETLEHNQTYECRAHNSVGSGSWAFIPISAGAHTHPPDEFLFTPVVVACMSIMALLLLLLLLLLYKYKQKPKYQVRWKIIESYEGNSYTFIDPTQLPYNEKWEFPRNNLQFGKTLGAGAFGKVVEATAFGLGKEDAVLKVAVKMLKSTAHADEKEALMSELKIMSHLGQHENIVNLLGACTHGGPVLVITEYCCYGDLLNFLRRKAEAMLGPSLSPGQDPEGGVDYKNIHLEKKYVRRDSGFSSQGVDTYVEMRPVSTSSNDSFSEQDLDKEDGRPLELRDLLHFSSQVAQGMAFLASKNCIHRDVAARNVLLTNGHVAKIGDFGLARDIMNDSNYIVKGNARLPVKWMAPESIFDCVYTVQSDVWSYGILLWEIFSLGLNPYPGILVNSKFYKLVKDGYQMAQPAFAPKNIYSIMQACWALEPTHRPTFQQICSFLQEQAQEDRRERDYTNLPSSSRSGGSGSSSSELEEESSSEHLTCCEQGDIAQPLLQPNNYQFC

inhibition at 1 µM [1] [%]	inhibition at 1 µM [2] [%]	inhibition at 1 µM (cKIT) [%]	inhibition at 1 µM (PDGFRb) [%]	SMILES	inhibition at 1 µM [3] [%]
93	100	48	9	CC(C)(C)OC(=O)N1CC=C(c2cncc(Oc3ccc4nc(N[C@@H]5CCCC[C@H]5O)sc4c3)c2)CC1 [Compound 79]	93
78	100	20	8	O[C@@H]1CCCC[C@H]1Nc1nc2ccc(Oc3ccnc(-c4cccnc4)n3)cc2s1 [Compound 27, (1R,2R)-2-(6-(2-(pyridin-3-yl)pyrimidin-4-yloxy)benzo [d]thiazol-2-ylamino) cyclohexanol]	54
93	100	33	21	Cn1cncc1-c1cncc(Oc2ccc3nc(N[C@@H]4CCCC[C@H]4O)sc3c2)c1 [Compound 68, (1R,2R)-2-(6-(5-(1-methyl-1H-imidazol-5-yl)pyridin-3-yloxy)benzo[d]thiazol-2-ylamino) cyclohexanol]	85
96	100	45	0	O[C@@H]1CCCC[C@H]1Nc1nc2ccc(Oc3cncc(-c4cccnc4)c3)cc2s1 [Compound 57, (1R,2R)-2-(6-(3,3′-bipyridin-5-yloxy)benzo[d]thiazol-2-ylamino)cyclohexanol]	96
95	100	52	3	O[C@@H]1CCCC[C@H]1Nc1nc2ccc(Oc3cncc(-c4ccncc4)c3)cc2s1 [Compound 60, (1R,2R)-2-(6-(3,4′-bipyridin-5-yloxy)benzo[d]thiazol-2-ylamino)cyclohexanol]	97
86	100	16	26	CN1CCN(c2ccc(-c3cc(Oc4ccc5nc(N[C@@H]6CCCC[C@H]6O)sc5c4)cnc3-c3ccc(N4CCN(C)CC4)nc3)cn2)CC1 [Compound 107, (1R,2R)-2-(6-(5,6-bis(6-(4-methylpiperazin-1-yl)-pyridin-3-yl)pyridin-3-yloxy)benzo[d]thiazol-2-ylamino)cyclohexanol]	100
95	100	18	22	Cn1cc(-c2cncc(Oc3ccc4nc(N[C@@H]5CCCC[C@H]5O)sc4c3)n2)cn1 [Compound 93, (1R,2R)-2-(6-(6-(1-methyl-1H-pyrazol-4-yl)pyrazin-2-yloxy)benzo[d]thiazol-2-ylamino)cyclohexanol]	82
70	100	30	14	C[C@H](Nc1nc2ccc(Oc3ccnc(-c4ccncc4)n3)cc2s1)C1CCCCC1 [Compound 32, (S)-N-(1-cyclohexylethyl)-6-(2-(pyridin-4-yl)pyrimidin-4-yloxy)benzo[d] thiazol-2-amine]	58
96	100	43	10	Cn1nccc1-c1cncc(Oc2ccc3nc(N[C@@H]4CCCC[C@H]4O)sc3c2)c1 [Compound 56, (1R,2R)-2-(6-(5-(1-methyl-1H-pyrazol-5-yl)pyridin-3-yloxy)benzo[d]thiazol-2-ylamino)cyclohexanol]	93
95	100	13	9	CCCn1cc(-c2cncc(Oc3ccc4nc(N[C@@H]5CCCC[C@H]5O)sc4c3)n2)cn1 [Compound 94, (1R,2R)-2-(6-(6-(1-propyl-1H-pyrazol-4-yl)pyrazin-2-yloxy)benzo[d]thiazol-2-ylamino)cyclohexanol]	80
80	100	35	14	Nc1ncc(-c2cncc(Oc3ccc4nc(N[C@@H]5CCCC[C@H]5O)sc4c3)c2)cn1 [Compound 63, (1R,2R)-2-(6-(5-(2-aminopyrimidin-5-yl)pyridin-3-yloxy)benzo[d]thiazol-2-ylamino) cyclohexanol]	61
98	100	15	12	CN1CCN(c2ccc(-c3cncc(Oc4ccc5nc(N[C@@H]6CCCC[C@H]6O)sc5c4)n3)cn2)CC1 [Compound 98, (1R,2R)-2-(6-(6-(6-(4-methylpiperazin-1-yl)pyridin-3-yl)pyrazin-2-yloxy)benzo[d]thiazol-2-ylamino)cyclohexanol]	100
96	100	40	9	Cn1ccnc1-c1cncc(Oc2ccc3nc(N[C@@H]4CCCC[C@H]4O)sc3c2)c1 [Compound 66, (1R,2R)-2-(6-(5-(1-methyl-1H-imidazol-2-yl)pyridin-3-yloxy)benzo[d]thiazol-2-ylamino) cyclohexanol]	90
